The record followed here is the SangsterLogP compilation.

The nature of one series: method code SF-AS, from Novello, F.; Sprague, M. (1967). Structure-activity relations among the thiazole diuretics. Ind. Chim. Belge, 32(Spec.No.), 222-225. The conditions noted are these: pH 6.4.
The term logD denotes lipophilicity at a set pH, counting ionised and neutral species. Higher therefore signals a more lipophilic compound. `NS(=O)(=O)c1cc2c(cc1Cl)NC(CSCc1ccccc1)NS2(=O)=O` (stereo not drawn) had a logD of 1.11.

The series is the same for the next values; noted with them: pH 6.5.
On to `NS(=O)(=O)c1ccc2c(c1)S(=O)(=O)NC=N2`, for which the logD was -0.62.
The same measure, in the same setting: as for `CC1CCC2(CC1)Nc1cc(Cl)c(S(N)(=O)=O)cc1S(=O)(=O)N2` (stereo not drawn), the figure is 0.85; as for `Cc1cc2c(cc1S(N)(=O)=O)S(=O)(=O)NCN2`, -0.22; as for `Cc1cc2c(cc1S(N)(=O)=O)S(=O)(=O)N=CN2`, -0.32.
The same measure, in the same setting: the same measure for `CC1Nc2cc(Cl)c(S(N)(=O)=O)cc2S(=O)(=O)N1` (stereo not drawn): 0.08.
Compound `NS(=O)(=O)c1cc2c(cc1Cl)N=C(Cc1ccccc1)NS2(=O)=O` returned a logD of 1.56.
With `CC1(C)Nc2cc(Cl)c(S(N)(=O)=O)cc2S(=O)(=O)N1`, the logD came to 0.15.
The compound `NS(=O)(=O)c1cc2c(cc1C(F)(F)F)N=CNS2(=O)=O` returned a log distribution coefficient (logD) of 0.32.
Regarding `CC1=Nc2cc(Cl)c(S(N)(=O)=O)cc2S(=O)(=O)N1`, the logD was 0.03.
Turning to `NS(=O)(=O)c1cc2c(cc1[N+](=O)[O-])N=CNS2(=O)=O`, the logD turned out to be 0.08.
With `CCCCCC1=NS(=O)(=O)c2cc(S(N)(=O)=O)c(Cl)cc2N1`, the logD was 2.01.
For `CCC1Nc2cc(Cl)c(S(N)(=O)=O)cc2S(=O)(=O)N1` (stereo not drawn), the logD is 0.3.
In turn, `NS(=O)(=O)c1cc2c(cc1Br)N=CNS2(=O)=O` yielded a pH-dependent lipophilicity (logD) of 0.
As for `NS(=O)(=O)c1cc2c(cc1C(F)(F)C(F)(F)F)N=CNS2(=O)=O`, the logD came out at 1.05.
For the compound `NS(=O)(=O)c1ccc2c(c1)S(=O)(=O)NC(CC1CCCC1)N2` (stereo not drawn), the logD came out at 1.24. This logD and that of the compound before are within 0.2 log units of each other.
The same measure, in the same setting: as for `NS(=O)(=O)c1cc2c(cc1Cl)NC(C(Cl)(Cl)Cl)NS2(=O)=O` (stereo not drawn), the figure is 0.82.
`NS(=O)(=O)c1cc2c(cc1Cl)NC(C(F)(F)F)NS2(=O)=O` (stereo not drawn): the logD is 0.49.
`NS(=O)(=O)c1cc2c(cc1Cl)NC1(CCCCC1)NS2(=O)=O` displayed a logD of 1.
Turning to `NS(=O)(=O)c1cc2c(cc1Cl)NC(C1CC3C=CC1C3)NS2(=O)=O` (stereo not drawn), the log distribution coefficient (logD) came to 1.8.
With `CC1CCC2(CC1)Nc1ccc(S(N)(=O)=O)cc1S(=O)(=O)N2` (stereo not drawn), the logD was determined as 1.56.
On the same count and under the same terms, as for `NS(=O)(=O)c1cc2c(cc1F)N=CNS2(=O)=O`, the figure is -0.29; as for `NS(=O)(=O)c1ccc2c(c1)S(=O)(=O)NCN2`, -0.52.
The same measure, in the same setting: as for `CCCC1=Nc2cc(Cl)c(S(N)(=O)=O)cc2S(=O)(=O)N1`, the figure is 1.15.
`NS(=O)(=O)c1cc2c(cc1Br)NCNS2(=O)=O`: the logD stood at 0.08.
With `NS(=O)(=O)c1cc2c(cc1[N+](=O)[O-])NCNS2(=O)=O`, the logD stood at 0.2.
As for `CC(C)(C)C1Nc2cc(Cl)c(S(N)(=O)=O)cc2S(=O)(=O)N1` (stereo not drawn), the logD was determined as 0.36.
Compound `NS(=O)(=O)c1ccc2c(c1)S(=O)(=O)NC(C(Cl)Cl)N2` (stereo not drawn) gave a log distribution coefficient (logD) of 0.46.
`NS(=O)(=O)c1cc2c(cc1Cl)NC(CC1CCCC1)NS2(=O)=O` (stereo not drawn) returned a logD of 1.27.
`NS(=O)(=O)c1cc2c(cc1Cl)NC(Cc1ccccc1)NS2(=O)=O` (stereo not drawn) gave a pH-dependent lipophilicity (logD) of 0.93.
In the case of `NS(=O)(=O)c1cc2c(cc1Cl)N=C(c1ccccc1)NS2(=O)=O`, the logD came out at 1.1.
For the compound `NS(=O)(=O)c1cc2c(cc1Cl)NC(CCl)NS2(=O)=O` (stereo not drawn), the log distribution coefficient (logD) stood at 0.11.
The compound `NS(=O)(=O)c1ccc2c(c1)S(=O)(=O)NC(Cc1ccccc1)N2` (stereo not drawn) registered a logD of 1.03.
